Measurements published in PubChem BioAssay AID588374 (Southern Research Specialized Biocontainment Screening …, 2011).
Values joined by “and” are separate entries in the source; they are usually repeats but may differ in a detail not shown here. Identical values can stand only once. Inconclusive results are not listed. Active and inactive are the calls of the source.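 How the source made its calls: active means viability below 70% at one or more tested concentrations in every replicate; inactive means viability above 70% at all doses, or replicates disagree.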

Experiments:
[1] = host cell viability loss, Vero E6 – synthesized analogs, extended characterization 1, cytotoxicity control for West Nile virus antiviral project, SAR follow-up (AID 588374); conditions: Vero E6 viability, CellTiter-Glo luminescence, 72 h
[2] = test system: Vero E6 viability, CellTiter-Glo luminescence, 72 h; test: as above

SMILES | viability ([1]; at 100 µM (top of the series)) | CC50 [2] [µM] | further results
O=C(CCCSc1nc2cccc(F)c2c(=O)n1-c1ccc(Cl)c(F)c1)Nc1ccc2c(c1)CCC2 | 82.9% (inactive) | – | –
Cc1cnc(NC(=O)CSc2nc3ccccc3c(=O)n2-c2ccc(Cl)c(Cl)c2)s1 | – | 28.8 | –
O=C(CSc1nc2ccccc2c(=O)n1-c1ccc(F)c(F)c1)NC1CCCc2ccccc21 (configuration not stated) | 76.2% (inactive) | – | –
O=C(CSc1nc2ccccc2c(=O)n1-c1ccccc1)Nc1ccc2c(c1)OCO2 | – | 57.3 | –
O=C(CSc1nc2ccccc2c(=O)n1-c1ccccc1)Nc1cccc2c1CCC2 | – | 37.3 | –
O=C(CSc1nc2ccccc2c(=O)n1-c1ccccc1)Nc1ccc2ncsc2c1 | 88.3% (inactive) | – | –
O=C(CCCSc1nc2ccccc2c(=O)n1-c1ccccc1)Nc1ccc2c(c1)CCC2 | 85.5% (inactive) | – | –
O=C(CCCSc1nc2ccccc2c(=O)n1-c1ccc(Cl)c(Cl)c1)Nc1ccc2c(c1)CCC2 | 80.6% (inactive) | – | –
O=C(CSc1nc2ccccc2c(=O)n1-c1ccc(Cl)c(Cl)c1)Nc1ccc2c(c1)CCC2 | 70.3% (inactive) | – | –
O=C(CCCSc1nc2cccc(F)c2c(=O)n1-c1ccc(F)c(F)c1)Nc1ccc2c(c1)CCC2 | 78% (inactive) | – | –
O=C(CSc1nc2ccccc2c(=O)n1-c1ccccc1)Nc1nc2ccc([N+](=O)[O-])cc2s1 | – | 40.5 | –
O=C(CCSc1nc2ccccc2c(=O)n1-c1ccc(F)c(Cl)c1)Nc1ccc2c(c1)CCC2 | 77.6% (inactive) | – | –
O=C(CSc1nc2ccccc2c(=O)n1-c1ccc(Cl)c(Cl)c1)NC1CCc2ccccc21 (configuration not stated) | – | – | viability ([1]; at 50 µM (top of the series)): 73.8% (inactive)
O=C(CCSc1nc2cccc(F)c2c(=O)n1-c1ccccc1)Nc1ccc2c(c1)CCC2 | – | 52.6 | –
O=C(CSc1nc2ccccc2c(=O)n1-c1cc(F)c(F)c(F)c1)NC1CCc2ccccc21 (configuration not stated) | – | 36 | –
O=C(CCCSc1nc2cccc(F)c2c(=O)n1-c1ccc(F)c(Br)c1)Nc1ccc2c(c1)CCC2 | 81.7% (inactive) | – | –
Cn1c(NC(=O)CSc2nc3ccccc3c(=O)n2-c2ccc(Cl)c(Cl)c2)nc2ccccc21 | – | – | viability ([1]; at 50 µM (top of the series)): 74.2% (inactive)
O=C(CSc1nc2cccc(F)c2c(=O)n1-c1ccccc1)Nc1ccc2c(c1)OCO2 | 76.3% (inactive) | – | –
O=C(CSc1nc2ccccc2c(=O)n1-c1cc(F)c(F)c(F)c1)Nc1ccc2c(c1)CCC2 | – | – | viability ([1]; at 50 µM (top of the series)): 76.3% (inactive)
O=C(CSc1nc2ccccc2c(=O)n1-c1ccccc1)Nc1ccc2c(c1)CCC2 | 76.9% (inactive) and 77% (inactive) | – | –
O=C(CSc1nc2ccccc2c(=O)n1-c1cc(Cl)cc(Cl)c1)Nc1nccs1 | – | 18 | –
O=C(CSc1nc2ccccc2c(=O)n1-c1cc(F)c(F)c(F)c1)Nc1ccc2c(c1)OCO2 | – | 32.8 | –
O=C(CSc1nc2ccccc2c(=O)n1-c1ccc(Cl)c(Cl)c1)Nc1ccc2c(c1)OCO2 | 74.2% (inactive) | – | –
O=C(CSc1nc2ccccc2c(=O)n1-c1ccccc1)Nc1nc(-c2ccccc2)cs1 | – | – | viability ([1]; at 50 µM (top of the series)): 77.7% (inactive)

SMILES | viability ([1]; at 100 µM (top of the series)) | CC50 [2] [µM] | further results
O=C(CSc1nc2ccccc2c(=O)n1-c1ccc(Cl)c(Cl)c1)Nc1nc2cc(Cl)ccc2o1 | – | 18.8 | –
Cc1nc2cc(NC(=O)CSc3nc4ccccc4c(=O)n3-c3ccccc3)ccc2s1 | 75.1% (inactive) | – | –
O=C(CSc1nc2ccccc2c(=O)n1-c1cc(Cl)cc(Cl)c1)Nc1cccc2c1CCC2 | – | 17.5 | –
O=C(CCCCSc1nc2cccc(F)c2c(=O)n1-c1ccc(Cl)c(F)c1)Nc1ccc2c(c1)CCC2 | 81.9% (inactive) | – | –
O=C(CSc1nc2ccccc2c(=O)n1-c1cc(Cl)cc(Cl)c1)Nc1cccc2ccccc12 | 83.8% (inactive) | – | –
O=C(CSc1nc2ccccc2c(=O)n1-c1ccc(F)c(F)c1)Nc1nccs1 | – | – | viability ([1]; at 50 µM (top of the series)): 74.1% (inactive)
O=C(CCCCSc1nc2ccccc2c(=O)n1-c1ccccc1)Nc1ccc2c(c1)CCC2 | – | 50 | –
O=C(CSc1nc2ccccc2c(=O)n1-c1ccc(Cl)c(Cl)c1)Nc1cccc2c1CCC2 | – | – | viability ([1]; at 50 µM (top of the series)): 76.2% (inactive)
O=C(CSc1nc2ccccc2c(=O)n1-c1ccc(Cl)c(Cl)c1)N1CCCCCC1 | 74.5% (inactive) | – | –
O=C(CSc1nc2cccc(F)c2c(=O)n1-c1ccccc1)Nc1ccc2ncsc2c1 | – | – | viability ([1]; at 50 µM (top of the series)): 86.2% (inactive)
Cc1nc2cc(NC(=O)CSc3nc4ccccc4c(=O)n3-c3ccc(Cl)c(Cl)c3)ccc2s1 | – | 18 | –
O=C(CCCCSc1nc2ccccc2c(=O)n1-c1ccc(F)c(Cl)c1)Nc1ccc2c(c1)CCC2 | – | 93.9 | –
O=C(COc1nc2ccccc2c(=O)n1-c1ccccc1)Nc1ccc2c(c1)CCC2 | 71.6% (inactive) | – | –
Cn1c(NC(=O)CSc2nc3ccccc3c(=O)n2-c2ccccc2)nc2ccccc21 | – | 16.4 | –
O=C(CSc1nc2ccccc2c(=O)n1-c1ccccc1)NC1Cc2ccccc2C1 | 75.3% (inactive) | – | –
O=C(CSc1nc2ccccc2c(=O)n1-c1ccccc1)Nc1nc2cc(Cl)ccc2o1 | – | 31.7 | –
O=C(CSc1nc2ccccc2c(=O)n1-c1ccc(Cl)c(Cl)c1)Nc1nccs1 | – | 14.9 | –
O=C(CCCCSc1nc2ccccc2c(=O)n1-c1cc(F)c(F)c(F)c1)Nc1ccc2c(c1)CCC2 | 70.2% (inactive) | – | –
O=C(CSc1nc2ccccc2c(=O)n1-c1ccccc1)NC1CCc2ccccc21 (configuration not stated) | 75.5% (inactive) | – | –
O=C(CSc1nc2ccccc2c(=O)n1-c1ccc(Cl)c(Cl)c1)Nc1ncc([N+](=O)[O-])s1 | – | 21.7 | –
O=C(CSc1nc2ccccc2c(=O)n1-c1ccccc1)Nc1nccs1 | 96.3% (inactive) | – | –
O=C(CSc1nc2ccccc2c(=O)n1-c1ccc(F)c(Cl)c1)Nc1cccc2ccccc12 | 75.5% (inactive) | – | –
O=C(CSc1nc2ccccc2c(=O)n1-c1ccc(Cl)c(Cl)c1)Nc1ccc2scnc2c1 | 75.5% (inactive) | – | –
